The numbers were not newly measured in patent publication US5998416A, “Piperazine, piperidine and tetrahydropyridine derivatives as 5-HT receptor agonists” (Merck Sharp & Dohme Ltd., priority 1996, dated 1999), which cites them from elsewhere.

For this series the following is noted: therapeutic doses.

Molecules are shown by their SMILES.

As for `CNS(=O)(=O)Cc1ccc2[nH]cc(CCN(C)C)c2c1` [sumatriptan], the “adverse cardiovascular events in humans” value is recorded as “certain adverse cardiovascular events”.
